Test results taken from ChEMBL document CHEMBL1137833, “Synthesis and biological evaluation of stilbene-based pure estrogen antagonists” (Bioorg Med Chem Lett, 2004).

Experiments:
[1] = target: T1, Estrogen receptor (Homo sapiens, UniProt Q92731+P03372); assay: Inhibition of 10e-9 M E2 stimulated MCF-7 breast cancer cell proliferation; type: functional, cell-based; settings: cancer cell lines
[2] = target: T1, Estrogen receptor; assay: Inhibition of ER+ MCF-7 breast cancer cell proliferation over 200 hr; settings: cancer cell lines
[3] = target: T1, Estrogen receptor; settings: Cancer cell lines, at 5 µM
Description: Inhibition of ER-MDA-MB 231 breast cancer cell proliferation over 96 hr at 5 uM

[4] = target: T1, Estrogen receptor; assay: Inhibition of 10e-9 M E2 stimulated transcriptional activation in ER+MCF-7/2a breast cancer cells; type: functional, cell-based; settings: cancer cell lines
[5] = target: T1, Estrogen receptor; settings: Cancer cell lines, at 10 µM
Description: Inhibition of ER-MDA-MB 231 breast cancer cell proliferation over 96 hr at 10 uM

| SMILES | IC50 [1] | IC50 [2] | T/C [3] | IC50 [4] | T/C [5] |
| --- | --- | --- | --- | --- | --- |
| CCCCCS(=O)(=O)CCCCCCCCCC/C(=C(/CC)c1cccc(O)c1)c1ccc(O)cc1 | 110 nM | 6.1 nM | 90% | 50 nM | 32% |
| CCCCCSCCCCCCCCCC/C(=C(/CC)c1ccc(O)cc1)c1cccc(O)c1 | 2100 nM |  |  | 1200 nM |  |
| CCCCCS(=O)(=O)CCCCCCCCCCn1c(-c2ccc(O)cc2)c(C)c2cc(O)ccc21 | 50 nM | 1.4 nM | 84% | 20 nM | -2% |
| CCCCCSCCCN(C)CCCCCC/C(=C(/CC)c1ccc(O)cc1)c1ccc(O)cc1 | 10 nM | 0.75 nM | 75% | 10 nM | -25% |
| CC/C(=C(/CCCCCCN(C)CCCSCCCC(F)(F)C(F)(F)F)c1ccc(O)cc1)c1ccc(O)cc1 | 7 nM | 0.22 nM | -15% | 10 nM | -15% |
| CCCCCSCCCCCCCCCC/C(=C(/CC)c1cccc(O)c1)c1ccc(O)cc1 | 590 nM |  |  | 200 nM |  |
| CCCCCS(=O)(=O)CCCCCCCCCC/C(=C(/CC)c1ccc(O)cc1)c1ccc(O)cc1 | 100 nM | 5.1 nM | 94% | 130 nM | -4% |
| C[C@]12CC[C@@H]3c4ccc(O)cc4C[C@@H](CCCCCCCCC[S+]([O-])CCCC(F)(F)C(F)(F)F)[C@H]3[C@@H]1CC[C@@H]2O (some centres not stated) |  |  | 93% |  | 95% |
| CCCCCS(=O)(=O)CCCCCCCCCC/C(=C(/CC)c1ccc(O)cc1)c1cccc(O)c1 | 270 nM | 49 nM | 96% | 370 nM | -7% |
| CCCCCSCCCCCCCCCC/C(=C(/CC)c1ccc(O)cc1)c1ccc(O)cc1 | 1400 nM |  |  | 790 nM |  |
| CC/C(=C(/CCCCCC(=O)N(C)CCCSCCCC(F)(F)C(F)(F)F)c1ccc(O)cc1)c1ccc(O)cc1 | 700 nM |  |  | 310 nM |  |
| CCCCCSCCCN(C)C(=O)CCCCC/C(=C(/CC)c1ccc(O)cc1)c1ccc(O)cc1 | 1900 nM |  |  | 600 nM |  |
